Reference: US11083714B2, “Selective anti-cancer agent effective for prevention and treatment” (Molecular International Research, Inc., priority 2018, dated 2021)

Tests used:
[1] = tested on: AM-38; experiment: Glioblastoma cell viability and proliferation assay (ATP), AM-38; format: cell-based; conditions: AM38, 72 hr
Protocol: FIG. 9. Glioblastoma in vitro cell viability and proliferation assay after treatment with de-ethylflavopereirine. Glioblastoma cell lines U-87MG, DBTRG-05MG, A172, and AM-38 were tested. Temozolomide, an oral chemotherapy drug known to treat some brain cancers, was used as a control. The concentrations of temozolomide (circles) or compound 13-9-1 (squares) used were 3 nM, 10 nM, 30 nM, 100 nM, 1 uM, 3 uM, 10 uM, and 30 uM. Each of the cell lines was treated with de-ethylflavopereirine for 72 hr before measuring cytotoxicity and inhibition of cell proliferation. Number of viable cells in culture based on quantitation of ATP. IC50 was determined as indicated below each graph.
The dose-response curves for the anti-brain cancer drug temozolomide are shown for comparison.

[2] = tested on: HT-29; experiment: Viability of bioluminescent HT-29 colon cancer cells; format: cell-based, human; conditions: HT-29, luminescence
Source text: FIG. 10. Dose-response curve for human colon cancer cell line HT-29 exposed to either de-ethylflavopereirine (squares) or Pao pereira plant extract (triangles) containing flavopereirine and at least one other anti-cancer compound, dihydroflavopereirine. The bioluminescent HT-29 cell line was used.
A bioluminescent line was used enabling viability to be assessed by luminescence. In this case, the activity of compound 13-9-1 was compared with a Pao pereira extract containing flavopereirine and at least one other anti-cancer compound.

[3] = tested on: β-catenin; experiment: β-catenin localization in PANC-1 cells (Wnt signaling); format: cell-based
Source text: FIG. 28. Effect of de-ethylflavopereirine on β-catenin localization in the nucleus of PANC-1 cells. […] Cytoplasmic β-catenin levels were not affected under these conditions. Vinculin provided a marker for a cytoplasmic protein that is present in very low amounts in the nucleus.
Wnt pathway activation involves translocation of β-catenin from the cytoplasm into the nucleus and subsequent changes in transcription of targeted genes. Suppression of Wnt activation occurs when the translocation of β-catenin into the nucleus is suppressed. […] So de-ethylflavopereirine inhibits the growth of pancreatic cancer stem cells in part because it specifically suppresses Wnt signaling.

[4] = tested on: PANC-1, MIA PaCa, BxPc; experiment: Apoptosis by flow cytometry in pancreatic cancer cell lines; format: cell-based; conditions: 10 μM and 20 μM
Protocol: FIG. 11. De-ethylflavopereirine induces apoptosis in pancreatic cancer cell lines PANC-1 (top), MIA PaCa (middle), and BxPc (bottom). Following exposure of cells to de-ethylflavopereirine at concentrations of 0.5 μM, 10 μM, and 20 μM, flow cytometry was used to assess the percentage of cells undergoing early apoptosis (clear), late apoptosis (dark), or necrosis (stipple). […] Values are mean±SEM (n=3). *p≤0.05 compared with control group using Student's t-test; **p≤0.01 compared with control group using Student's t-test.

[5] = tested on: PANC-1 cancer stem cells; experiment: Tumor formation of PANC-1 cancer stem cells (FIG. 27); format: in vivo, mice; conditions: 2×10^5 pre-treated PANC-1 cells
Protocol: FIG. 27. Reduction of tumor formation by de-ethylflavopereirine. Compound 13-9-1 reduced tumor formation of PANC-1 cancer stem cells.
Mice were then treated with de-ethylflavopereirine for 20 days after injection. […] Maximum tumor formation rate reached 80% at day 39, which is a highly significant difference compared to control (P=0.001 by log-rank test).

[6] = tested on: PANC-1 pancreatic cancer cells; experiment: Cleavage of Caspase-3, Caspase-8 and PARP; format: cell-based; conditions: 0-20 μM for 48 hours; 20 μM for 0-48 hours
Source text: FIG. 12. Cleavage of Caspase-3, Caspase-8, and PARP confirms that de-ethylflavopereirine induces apoptosis in PANC-1 pancreatic cancer cells. Beta-actin was used as a control.
Induction of apoptosis was also shown by detection of Caspase-8, Caspase-3, and PARP cleavage products. The cleaved protein products are identified in FIG. 12 by arrows adjacent to the right panel. The accumulation of these proteolytic fragments is a biochemical signature for apoptotic cell death.

[7] = Tissue distribution after oral administration; format: in vivo, mice; conditions: oral 200 mg/kg; for Tmax: mouse
Source text: The highest concentrations (highest Cmax) were found in kidney, colon and spleen. Highest AUC was found with the lung, followed by spleen, colon, and kidney.
Lung had the largest AUC and the fastest Tmax. […] Compound 13-9-1 was accumulated in the lung relatively fast, and was eliminated relatively slowly. The concentration was maintained in lung for a long time relative to other organs. At 24 hr, the concentration in the lung was still 6.67 nmoles/mg protein, 38% of the peak of 17.50 at 2 hr.
Colon had the second highest Cmax among all the organs tested, and an AUC only less than lung and spleen. […] Tmax was 3 hr. At 24 hr, the concentration was 9.31 nmoles/mg protein, 29% of the peak of 31.63.

[8] = tested on: MRC-5; experiment: MTT cell viability, normal control cell line; format: cell-based, human; conditions: MRC-5, 48 hr
Protocol: FIG. 7. Dose-response curves for cell viability of human ovarian cancer cell lines OVCAR-5 (triangles), SHIN-3 (squares), and OVCAR-8 (lozenges) exposed to de-ethylflavopereirine. Cells were cultured in the presence of increasing concentrations of the compound for 48 hr and cell viability was determined by MTT assay. MRC-5 (crosses), an immortalized, normal human […] cell line, was used as a control.
FIG. 8. Dose-response curves for cell viability of human pancreatic cancer cell lines MIA PaCa (squares), PANC-1 (lozenges), BxPc (crosses), and AsPc (triangles) exposed to de-ethylflavopereirine. Cells were cultured in the presence of increasing concentrations of the compound for 48 hr and cell viability was determined by MTT assay. MRC-5 (asterisks) was used as a control.
De-ethylflavopereirine was tested for its activity against ovarian, pancreatic, brain, and colon cancer cell lines. […] Cytotoxicity is assayed by reducing a yellow tetrazolium dye, 3-(4,5-dimethylthiazol-2-yl)-2,5-diphenyltetrazolium bromide (MTT), to insoluble purple formazan. The MTT assay is a colorimetric assay for determining the number of viable cells.

For `c1ccc2c(c1)[nH]c1c2cc[n+]2ccccc12` [Compound 13-9-1, 12H-indolo[2,3-a]quinolizin-5-ium], the “IC50 relative to IC50 of temozolomide” value [1] was 0.66 times, the “activity compared with Pao pereira extract” value [2] was “active at much lower concentrations than the plant extract” and the “cytoplasmic β-catenin levels” value ([3]; 24 and 48 hr) was “not affected”. For the same molecule, the “β-catenin levels in the nucleus” value ([3]; 24 hr post-treatment) was “no effect”, the “β-catenin levels in the nucleus” value ([3]; 48 hr post-treatment) was “significantly reduced” and the induction of apoptosis [4] was “induction is dose dependent”. For the same molecule, the induction of apoptosis ([4]; listed as De-ethylflavopereirine) was “Early apoptosis is the predominant result”, the tumor formation ([5]; Day 20) was 55% and the “maximum tumor formation rate” value ([5]; Day 39) was 80%. The “cleavage of Caspase-3, Caspase-8 and PARP” value [6] was “dose- and time-dependent”, the Cmax ([7]; adrenal gland) was 17.62 nmoles/mg of protein and the Cmax ([7]; brain) was 1.20 nmoles/mg of protein. For the same molecule, the Cmax ([7]; colon) was 31.63 nmoles/mg of protein, the “concentration at 24 hr” value ([7]; colon) was 9.31 nmoles/mg protein and the “concentration at 24 hr as share of the peak” value ([7]; colon) was 29%. For the same molecule, the Cmax ([7]; heart) was 7.82 nmoles/mg of protein, the Cmax ([7]; kidney) was 55.69 nmoles/mg of protein and the Cmax ([7]; liver) was 22.21 nmoles/mg of protein. The Cmax ([7]; lung) was 17.50 nmoles/mg of protein, the “concentration at 24 hr” value ([7]; lung) was 6.67 nmoles/mg protein and the “concentration at 24 hr as share of the peak” value ([7]; lung) was 38%. For the same molecule, the Tmax ([7]; adrenal gland) was 4 h, the Tmax ([7]; brain) was 4 h and the Tmax ([7]; colon) was 3 h. For the same molecule, the Tmax ([7]; heart) was 4 h, the Tmax ([7]; kidney) was 4 h and the Tmax ([7]; liver) was 4 h. It also gave a Tmax ([7]; lung) of 2 h, a Tmax ([7]; muscle) of 4 h and a Tmax ([7]; ovary) of 4 h. The Tmax ([7]; pancreas) was 4 h, the Tmax ([7]; spleen) was 4 h and the Cmax ([7]; muscle) was 5.67 nmoles/mg of protein. The tissue distribution [7] was “found in all tested organs and tissues, including the brain”, the Cmax ([7]; ovary) was 11.17 nmoles/mg of protein and the Cmax ([7]; pancreas) was 16.95 nmoles/mg of protein. The Cmax ([7]; spleen) was 30.01 nmoles/mg of protein and the “toxicity to noncancerous cells compared with cancer cells” value [8] was “significantly less toxic”.
